From ChEMBL document CHEMBL4138236, “Trisubstituted barbiturates and thiobarbiturates: Synthesis and biological evaluation as xanthine oxidase inhibitors, antioxidants, antibacterial and anti-proliferative agents” (Eur J Med Chem, 2018)
Converted amounts (≈) assume the structure as drawn.

How the values were obtained:
Klebsiella pneumoniae = assay: Antibacterial activity against Klebsiella pneumoniae ATCC 13883 after 24 hrs by broth microdilution method; format: functional; conditions: ATCC 13883, 24 h
Salmonella typhimurium = assay: Antibacterial activity against Salmonella typhimurium ATCC 13311 after 24 hrs by broth microdilution method; format: functional, Salmonella enterica subsp. enterica serovar Typhimurium; conditions: Salmonella enterica, ATCC 13311, 24 h
NHDF [1] = assay: Antiproliferative activity against NHDF at 30 uM after 72 hrs by MTT assay relative to control; format: cell-based; conditions: human
Bacillus cereus = assay: Antibacterial activity against Bacillus cereus ATCC 1178 after 24 hrs by broth microdilution method; format: functional; conditions: ATCC 1178, 24 h
Staphylococcus aureus = assay: Antibacterial activity against Staphylococcus aureus ATCC 25923 after 24 hrs by broth microdilution method; format: functional; conditions: ATCC 25923, 24 h
[2] = Antioxidant activity assessed as DPPH radical scavenging activity at 30 uM after 60 mins by spectrophotometric method relative to control; format: functional
MCF7 [3] = assay: Antiproliferative activity against human MCF7 cells at 30 uM after 72 hrs by MTT assay relative to control; format: functional
Escherichia coli = assay: Antibacterial activity against Escherichia coli ATCC 25922 after 24 hrs by broth microdilution method; format: functional; conditions: ATCC 25922, 24 h
[4] = Antioxidant activity assessed as DPPH radical scavenging activity at 30 uM after 20 mins by spectrophotometric method relative to control; format: functional
MCF7 [5] = assay: cells; conditions: Homo sapiens, MCF7, 72 h
Acinetobacter baumannii = assay: Antibacterial activity against Acinetobacter baumannii LMG 1025 after 24 hrs by broth microdilution method; format: functional; conditions: LMG 1025, 24 h
Pseudomonas aeruginosa = assay: Antibacterial activity against Pseudomonas aeruginosa ATCC 27853 after 24 hrs by broth microdilution method; format: functional; conditions: ATCC 27853, 24 h
[6] = Antioxidant activity assessed as DPPH radical scavenging activity after 60 mins by spectrophotometric method; format: functional
NHDF [7] = assay: Antiproliferative activity against NHDF after 72 hrs by MTT assay; format: cell-based; conditions: Homo sapiens
[8] = Antioxidant activity assessed as DPPH radical scavenging activity after 20 mins by spectrophotometric method; format: functional

Row | SMILES | MIC (Klebsiella pneumoniae) [µM] | MIC (Salmonella typhimurium) [µM] | Activity (NHDF [1]) [%] | MIC (Bacillus cereus) [µM] | MIC (Staphylococcus aureus) [µM] | Activity [2] [%] | Activity (MCF7 [3]) [%] | MIC (Escherichia coli) [µM] | Activity [4] [%] | IC50 (MCF7 [5]) [µM] | MIC (Acinetobacter baumannii) [µM] | MIC (Pseudomonas aeruginosa) [µM] | IC50 [6] [µM] | IC50 (NHDF [7]) [µM] | IC50 [8] [µM]
1 | O=C1NC(=S)NC(=O)C1=CNc1ccc([N+](=O)[O-])cc1Cl | > 200 | > 200 | 76.01 | > 200 | > 200 | 0.5 | 32.43 | > 200 | 0.91 | 13.2 | > 200 | > 200 | – | – | –
2 | CC(NNc1ccccc1)=C1C(=O)N(C)C(=O)N(C)C1=O | > 200 | > 200 | 65.56 | > 200 | > 200 | 76.7 | 57.38 | > 200 | 77.1 | – | 25 (≈ 7.21 µg/mL) | > 200 | 18.8 | 82 | 22.6
3 | CC(NNc1ccc([N+](=O)[O-])cc1)=C1C(=O)N(C)C(=O)N(C)C1=O | > 200 | > 200 | 77.63 | > 200 | > 200 | 76 | 76.99 | > 200 | 71.2 | – | 12.5 (≈ 4.17 µg/mL) | > 200 | 23.8 | – | 23.9
4 | O=c1[nH]cc(F)c(=O)[nH]1 [FLUOROURACIL] | – | – | 58.31 | – | – | – | 11.88 | – | – | 2.35 | – | – | – | 7.38 | –
5 | NC(=S)NC=C1C(=O)N(c2ccccc2)C(=S)N(c2ccccc2)C1=O | > 200 | > 200 | 95.17 | > 200 | > 200 | 32 | 90.04 | > 200 | 23.1 | – | > 200 | > 200 | – | – | –
6 | CN1C(=O)C(=CNc2ccccc2C(=O)O)C(=O)N(C)C1=O | > 200 | > 200 | 71.19 | > 200 | > 200 | 1.98 | 50.34 | > 200 | 3.37 | – | > 200 | > 200 | – | – | –
7 | NC(=S)NC=C1C(=O)NC(=S)NC1=O | > 200 | > 200 | 83.56 | > 200 | > 200 | 4.18 | 111.15 | > 200 | 3.37 | – | > 200 | > 200 | – | – | –
8 | O=C1NC(=O)C(=CNc2ccccc2C(=O)O)C(=O)N1 | > 200 | > 200 | 84.62 | > 200 | > 200 | 1.98 | 54.9 | > 200 | 1.75 | – | > 200 | > 200 | – | – | –
9 | CN1C(=O)C(=CNC(N)=S)C(=O)N(C)C1=O | > 200 | > 200 | 84.63 | > 200 | > 200 | 31.9 | 59.18 | > 200 | 20.3 | – | > 200 | > 200 | – | – | –
10 | CC(NNc1ccccc1)=C1C(=O)NC(=O)NC1=O | > 200 | > 200 | 74.87 | > 200 | > 200 | 78.1 | 40.24 | > 200 | 77.1 | – | 25 (≈ 6.51 µg/mL) | > 200 | 20.4 | – | 23.9
11 | Cc1c(C)c2c(c(C)c1O)CCC(C)(C(=O)O)O2 (stereo not given) [TROLOX] | – | – | – | – | – | 70.3 | – | – | 70 | – | – | – | 35.9 | – | 33.8
